The values below come from patent US6221870A, “Ergoline derivatives and their use as somatostatin receptor antagonists” (Novartis AG, priority 1997, dated 2001).

Series [1] addresses T1, native rat sst1 receptors (Rattus norvegicus, UniProt P28646).
T1 construct: native rat sst1 receptors
As to the kind of experiment: affinity for native rat sst1 receptors (radioligand binding). To be noted: read-out: pIC50, affinity for native rat sst1 receptors (converted). The source says:
(§1) In particular the agents of the invention bind to somatostatin receptors. More particularly they are selective antagonists at Somatostatin sst1 receptors, previously called SSTR-1 receptors (see Hoyer et al., TIPS, 1995, 16; 86-88), as determined in radioligand binding and second messenger studies [see for example K Kaupmann et al., FEBS LETTERS 1993, 331: 53-59].
(§2) For all above indications the preferred compound is the compound of example 1 below.

The target in series [2] is T2, native human sst1 receptors (Homo sapiens, UniProt P30872).
T2 construct: native and recombinant human sst1 receptors
T2 sequence (P30872 whole entry): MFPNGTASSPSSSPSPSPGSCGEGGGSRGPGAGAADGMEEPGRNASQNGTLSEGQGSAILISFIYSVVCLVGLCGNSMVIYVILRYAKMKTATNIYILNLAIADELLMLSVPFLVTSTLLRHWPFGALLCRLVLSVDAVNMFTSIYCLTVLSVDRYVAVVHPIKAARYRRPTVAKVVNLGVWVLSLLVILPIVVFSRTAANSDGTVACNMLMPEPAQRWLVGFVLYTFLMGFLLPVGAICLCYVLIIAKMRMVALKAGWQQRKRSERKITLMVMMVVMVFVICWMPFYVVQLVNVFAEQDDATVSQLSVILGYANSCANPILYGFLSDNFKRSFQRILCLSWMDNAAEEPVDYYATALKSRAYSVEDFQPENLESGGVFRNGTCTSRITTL
Kind of series: affinity for native human sst1 receptors (radioligand binding). To be noted: read-out: pIC50, affinity for native human sst1 receptors (converted).
Excerpt: as §1, §2

Series [3] addresses T3, recombinant human sst1 receptors (Homo sapiens, UniProt P30872).
T3 construct: expressed in transfected cells
Kind of series: affinity for recombinant human sst1 receptors (radioligand binding). The note with it: read-out: pIC50, affinity for recombinant human sst1 receptors (converted).
Excerpt: as §1, §2

Series [4] deals with neurotransmitter receptors. Kind of series: activity for a wide range of neurotransmitter receptors. The series is classed as binding.
Excerpt: as §2

Another series has as its system intruder mouse. As to the kind of experiment: intruder mouse test. It counts as in vivo. To be noted: for potency compared with the compound of example 1, intruder mouse test: standard drugs at 3-30 mg/kg s.c.
Another series deals with mice. Kind of series: Matched Pairs Situation test in mice. It counts as in vivo, mouse. To be noted: for lowering of aggressive behavior (Matched Pairs Situation test), standard drugs: 3-30 mg/kg s.c.; for potency compared with the compound of example 1, Matched Pairs Situation test: standard drugs at 3-30 mg/kg s.c.
The conditions of series [5]: known drawback; cited from earlier work.

T1 sequence (P28646 whole entry): as the sequence (P30872 whole entry) above, with S8P, S11T, P16S, S20G, G25V, G26C, A32S, A45S, T385A, T389S counted along it
T3 sequence (P30872 whole entry): as the sequence (P30872 whole entry) above

As for `CN1C[C@H](C(=O)N2CCN(c3cccc(=O)n3C)CC2)C[C@@H]2c3cccc4[nH]c(Br)c(c34)C[C@H]21` [Example 1, [5R, 8R, 10R]-2-Bromo-9,10-dihydro-lysergic-acid-4-(1-methyl-1H-pyrid-6-on-2-yl)-piperazine-amide], the IC50 in series [1] is 0.2 nM; in series [2], 1 nM; in series [3], 1.58 nM. For the same molecule, in series [4], the “activity for a wide range of neurotransmitter receptors” value was “without significant activity”. Besides, the “social withdrawal in the intruder mouse test” value in the series with intruder mouse (3-30 mg/kg p.o.) is “reverses social withdrawal”. In the series on mice (3-30 mg/kg p.o.), the “aggressive behavior in the Matched Pairs Situation test” value is given as “clearly lowers aggressive behavior”.

For `NC(=O)N1c2ccccc2C=Cc2ccccc21` [carbamazepine], the “potency compared with the compound of example 1, intruder mouse test” value in the series on intruder mouse is “less potent”. Also, in the series with mice, the “lowering of aggressive behavior (Matched Pairs Situation test), standard drugs” value is “These effects are also observed” and the “potency compared with the compound of example 1, Matched Pairs Situation test” value is listed as “less potent”. Besides, in series [5], the therapeutic window result was “narrow therapeutic window”.

lithium: in the series on intruder mouse, the “potency compared with the compound of example 1, intruder mouse test” value was “less potent”. Also, in the series with mice, the “lowering of aggressive behavior (Matched Pairs Situation test), standard drugs” value was “These effects are also observed” and the “potency compared with the compound of example 1, Matched Pairs Situation test” value is “less potent”. Also, the therapeutic window result in series [5] is “narrow therapeutic window”.
